Patent US9676721B2, “Compounds and compositions for the inhibition of NAMPT” (FORMA TM, LLC, priority 2010, dated 2017)

Legend:
A2780 cells = assay: In-Vitro Cell Proliferation Assay (SRB); format: cell-based; settings: Homo sapiens, A2780, 72 h
Experimental: In-Vitro Cell Proliferation Assay […] After overnight incubation at 37° C. and 5% CO2, the compound titrations were performed in a separate dilution plate by serially diluting the compounds in DMSO to make a 1000× stock. The compounds were then further diluted to 10× final concentration in culture media, whereupon 20 μL of each dilution was added to the plated cells with controls (e.g. DMSO and blank) to make a final volume of 200 μL. The final DMSO concentration in each well was 0.1%. The plates were then incubated for 72 hours at 37° C. in a 5% CO2 incubator. The number of viable cells was then assessed using sulforhodamine B (SRB) assay. Cells were fixed at 4° C. for 1 hour with the addition of 50 μL 30% trichloroacetic acid (TCA) to make a final concentration of 6% TCA. The plates were washed four times with H2O and allowed to dry for at least 1 hour, whereupon 100 μL of a […] SRB in 1% acetic acid solution was added to each well and incubated at room temperature for at least 30 minutes. The plates were then washed three times with 1% acetic acid, dried, and treated with 100 μL of 10 mM Tris-Base solution. The plates were then read in a microplate reader at an absorbance of 570 nm. Background was generated on a separate plate with media only. Method for Determining % Inhibition First, the signals from the background plate are averaged, then the background was subtracted from the test plates. […] Formula for Determining IC50 Values: […] Specificity of Cytotoxicity. Inhibition of NAMPT could be reversed by the addition of NAM or NMN. The specificity of the compounds were determined via cell viability assay in the presence of the compound and either NAM or NMN. Percent inhibitions were determined using the method given above.

NAMPT = NAMPT (Homo sapiens (Human), UniProt P43490); assay: Biochemical Inhibition Assay (NAMPT enzymatic reaction, NMN by mass spectrometry); settings: recombinant His-tagged NAMPT 33 nM, 1 μM NAM, 30 minutes; read-out: Biochem IC50
Experimental: Biochemical Inhibition Assay NAMPT Protein Purification Recombinant His-tagged NAMPT was produced in E. coli cells, purified over a Ni column, and further purified over a size-exclusion column by XTAL Biostructures. The NAMPT Enzymatic Reaction The NAMPT enzymatic reactions were carried out in Buffer A (50 mM Hepes pH 7.5, 50 mM NaCl, 5 mM MgCl2, and 1 mM THP) in 96-well V-bottom plates. The compound titrations were performed in a separate dilution plate by serially diluting the compounds in DMSO to make a 100× stock. […] Background and signal strength was determined by addition (or non-addition) of a serial dilution of NMN to a pre-quenched enzyme and cofactor mix. Quantification of NMN A mass spectrometry-based assay was used to measure the NAMPT reaction product (NMN) and the internal control (L-Cystathionine). NMN and L-Cystathionine were detected using the services of Biocius Lifesciences with the RapidFire system. In short, the NMN and L-Cystathionine are bound to a graphitic carbon cartridge in 0.1% formic acid, eluted in 30% acetonitrile buffer, and injected into a Sciex 4000 mass spectrometer. The components of the sample were ionized with electrospray ionization and the positive ions were detected. […] The fragments are quantified and the analyzed by the following method. % Inhibitions are Determined Using this Method. First the NMN signal is normalized to the L-Cystathionine signal by dividing the NMN signal by the L-Cystathionine signal for each well. The signal from the background wells are averaged and subtracted from the test plates. […] IC50s are Determined Using Excel and this Formula.

Sequence of NAMPT (P43490 whole entry): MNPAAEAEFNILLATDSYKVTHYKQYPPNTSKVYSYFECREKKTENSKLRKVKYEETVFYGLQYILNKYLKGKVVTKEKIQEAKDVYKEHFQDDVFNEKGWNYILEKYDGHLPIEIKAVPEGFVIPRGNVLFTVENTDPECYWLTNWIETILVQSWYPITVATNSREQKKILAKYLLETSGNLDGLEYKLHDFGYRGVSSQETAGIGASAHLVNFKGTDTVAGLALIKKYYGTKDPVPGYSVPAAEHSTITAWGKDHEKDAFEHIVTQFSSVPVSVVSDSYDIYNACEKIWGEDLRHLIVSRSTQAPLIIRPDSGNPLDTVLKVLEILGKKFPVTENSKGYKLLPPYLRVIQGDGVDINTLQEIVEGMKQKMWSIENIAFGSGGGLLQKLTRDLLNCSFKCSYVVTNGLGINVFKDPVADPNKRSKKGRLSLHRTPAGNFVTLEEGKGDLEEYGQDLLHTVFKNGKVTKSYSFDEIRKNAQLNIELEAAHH

| SMILES | IC50 (A2780 cells) [nM] | IC50 (NAMPT) [nM] |
| --- | --- | --- |
| CCCS(=O)(=O)Nc1cccc(S(=O)(=O)c2ccc(CNC(=NC#N)Nc3ccncc3)cc2)c1 [2-cyano-1-[(4-{[3-(propane-1-sulfonamido)benzene]sulfonyl}phenyl)methyl]-3-(pyridin-4-yl)guanidine] | 23.3 | 2.1 |
| COc1ccc(S(=O)(=O)c2ccc(CNC(=NC#N)Nc3ccncc3)cc2)cc1F [2-cyano-1-({4-[(3-fluoro-4-methoxybenzene)sulfonyl]phenyl}methyl)-3-(pyridin-4-yl)guanidine] | 2 | 1 |
| N#CN=C(NCc1ccc(S(=O)(=O)c2cccc(F)c2)cc1)Nc1ccncc1 [2-cyano-1-({4-[(3-fluorobenzene)sulfonyl]phenyl}methyl)-3-(pyridin-4-yl)guanidine] | 14.5 | 3.2 |
| N#CN=C(NCc1ccc(S(=O)(=O)c2ccc(OCC(F)(F)F)c(F)c2)cc1)Nc1ccncc1 [2-cyano-1-[(4-{[3-fluoro-4-(2,2,2-trifluoroethoxy)benzene]sulfonyl}phenyl)methyl]-3-(pyridin-4-yl)guanidine] | 5.9 | 5.1 |
| CN(C)S(=O)(=O)c1cccc(S(=O)(=O)c2ccc(CNC(=NC#N)Nc3ccncc3)cc2)c1 [2-cyano-1-[(4-{[3-(dimethylsulfamoyl)benzene]sulfonyl}phenyl)methyl]-3-(pyridin-4-yl)guanidine] | 6.1 | 1.3 |
| COc1ccc(S(=O)(=O)c2ccc(CN/C(=N\C#N)Nc3ccncc3)cc2)cc1 [2-cyano-1-({4-[(4-methoxybenzene)sulfonyl]phenyl}methyl)-3-(pyridin-4-yl)guanidine] | 10 | 6.5 |
| N#CN=C(NCc1ccc(S(=O)(=O)c2ccc(N3CCOCC3)nc2)cc1)Nc1ccncc1 [2-cyano-1-({4-[6-(morpholin-4-yl)pyridine-3-sulfonyl]phenyl}methyl)-3-(pyridin-4-yl)guanidine] | 3.3 | 1.9 |
| CCN(CC)C(=O)c1ccc(F)c(S(=O)(=O)c2ccc(CNC(=NC#N)Nc3ccncc3)cc2)c1 [3-[(4-{[2-cyano-3-(pyridin-4-yl)carbamimidamido]methyl}benzene)sulfonyl]-N,N-diethyl-4-fluorobenzamide] | 54.2 | 17.7 |
| COc1ccc(S(=O)(=O)c2ccc(CNC(=NC#N)Nc3ccncc3)cc2)c(OC)n1 [2-cyano-1-{[4-(2,6-dimethoxypyridine-3-sulfonyl)phenyl]methyl}-3-(pyridin-4-yl)guanidine] | 3.4 | 6.8 |
| CC(C)NC(=O)c1cccc(S(=O)(=O)c2ccc(CNC(=NC#N)Nc3ccncc3)cc2)c1 [3-[(4-{[2-cyano-3-(pyridin-4-yl)carbamimidamido]methyl}benzene)sulfonyl]-N-(propan-2-yl)benzamide] | 16.9 | 4.3 |
| N#CN=C(NCc1ccc(S(=O)(=O)c2cccc(-n3cccn3)c2)cc1)Nc1ccncc1 [2-cyano-1-[(4-{[3-(1H-pyrazol-1-yl)benzene]sulfonyl}phenyl)methyl]-3-(pyridin-4-yl)guanidine] | 2.9 | 3.5 |
| N#CN=C(NCc1ccc(S(=O)(=O)c2cccc(C(=O)NC3CCCC3)c2)cc1)Nc1ccncc1 [3-[(4-{[2-cyano-3-(pyridin-4-yl)carbamimidamido]methyl}benzene)sulfonyl]-N-cyclopentylbenzamide] | 28.3 | 6.6 |
| N#C/N=C(\NCc1ccc(S(=O)(=O)c2cccc(Cl)c2)cc1)Nc1ccncc1 [(E)-3-({4-[(3-chlorobenzene)sulfonyl]phenyl}methyl)-2-cyano-1-(pyridin-4-yl)guanidine] | 4.1 | 2.6 |
| CN(C)C(=O)c1cccc(S(=O)(=O)c2ccc(CNC(=NC#N)Nc3ccncc3)cc2)c1 [3-[(4-{[2-cyano-3-(pyridin-4-yl)carbamimidamido]methyl}benzene)sulfonyl]-N,N-dimethylbenzamide] | 64 | 3.4 |
| N#CN=C(NCc1ccc(S(=O)(=O)c2ccc(C#N)cc2)cc1)Nc1ccncc1 [2-cyano-1-({4-[(4-cyanobenzene)sulfonyl]phenyl}methyl)-3-(pyridin-4-yl)guanidine] | 13.7 | 5.9 |
| COc1ccc(C(C)C)cc1S(=O)(=O)c1ccc(CNC(=NC#N)Nc2ccncc2)cc1 [2-cyano-1-[(4-{[2-methoxy-5-(propan-2-yl)benzene]sulfonyl}phenyl)methyl]-3-(pyridin-4-yl)guanidine] | 3.5 | 5.3 |
| N#CN=C(NCc1ccc(S(=O)(=O)c2ccc(OC(F)(F)F)cc2)cc1)Nc1ccncc1 [2-cyano-3-(pyridin-4-yl)-1-[(4-{[4-(trifluoromethoxy)benzene]sulfonyl}phenyl)methyl]guanidine] | 11.8 | 3.5 |
| CCCn1cc(S(=O)(=O)c2ccc(CNC(=NC#N)Nc3ccncc3)cc2)cn1 [2-cyano-1-{[4-(1-propyl-1H-pyrazole-4-sulfonyl)phenyl]methyl}-3-(pyridin-4-yl)guanidine] | 6.4 | 4.1 |
| COc1ccccc1S(=O)(=O)c1ccc(CNC(=NC#N)Nc2ccncc2)cc1 [2-cyano-1-({4-[(2-methoxybenzene)sulfonyl]phenyl}methyl)-3-(pyridin-4-yl)guanidine] | 3.9 | 7.2 |
| N#CN=C(NCc1ccc(S(=O)(=O)c2cccc(C(=O)N3CCOCC3)c2)cc1)Nc1ccncc1 [2-cyano-1-{[4-({3-[(morpholin-4-yl)carbonyl]benzene}sulfonyl)phenyl]methyl}-3-(pyridin-4-yl)guanidine] | 70.5 | 1.7 |
| COc1ccc(S(=O)(=O)c2ccc(CNC(=NC#N)Nc3ccncc3)cc2)cc1OC [2-cyano-1-({4-[(3,4-dimethoxybenzene)sulfonyl]phenyl}methyl)-3-(pyridin-4-yl)guanidine] | 3.4 | 4 |
| N#C/N=C(\NCc1ccc(S(=O)(=O)c2ccc(-c3ccccc3)cc2)cc1)Nc1ccncc1 [2-cyano-1-({4-[(4-phenylbenzene)sulfonyl]phenyl}methyl)-3-(p] [2-cyano-1-({4-[(4-phenylbenzene)sulfonyl]phenyl}methyl)-3-(pyridin-4-yl)guanidine] |  | 3.5 |
| Cc1ccc(S(=O)(=O)c2ccc(CNC(=NC#N)Nc3ccncc3)cc2)cc1C [2-cyano-1-({4-[(3,4-dimethylbenzene)sulfonyl]phenyl}methyl)-3-(pyridin-4-yl)guanidine] | 1.2 | 2.2 |
| COc1cc(Cl)ccc1S(=O)(=O)c1ccc(CNC(=NC#N)Nc2ccncc2)cc1 [1-({4-[(4-chloro-2-methoxybenzene)sulfonyl]phenyl}methyl)-2-cyano-3-(pyridin-4-yl)guanidine] | 1.9 | 3 |
| N#CN=C(NCc1ccc(S(=O)(=O)c2cccc3c2OCO3)cc1)Nc1ccncc1 [1-{[4-(2H-1,3-benzodioxole-4-sulfonyl)phenyl]methyl}-2-cyano-3-(pyridin-4-yl)guanidine] | 9.4 |  |
| N#CN=C(NCc1ccc(S(=O)(=O)c2ccc(-n3cccn3)c(F)c2)cc1)Nc1ccncc1 [2-cyano-1-[(4-{[3-fluoro-4-(1H-pyrazol-1-yl)benzene]sulfonyl}phenyl)methyl]-3-(pyridin-4-yl)guanidine] | 9.4 |  |
| N#C/N=C(\NCc1ccc(S(=O)(=O)c2ccc(-c3ccccc3)cc2)cc1)Nc1ccncc1 [2-cyano-1-({4-[(4-phenylbenzene)sulfonyl]phenyl}methyl)-3-(pyridin-4-yl)guanidine] | 6.2 |  |
